Reference: paper PMC11475369, “Exploring the Potential of Synthetic Cannabinoids: Modulation of Biological Activity of Normal and Cancerous Human Colon Epithelial Cells” (Cells, 2024)
Converted amounts (≈) assume the structure as drawn.

Tests used:
CCD 841 CoTr cells [1] = assay: Neutral Red (NR) uptake assay, viability of CCD 841 CoTr cells; assay type: cell-based; details: Homo sapiens; CCD 841 CoTr colon normal cells, 24 h incubation
Protocol: (§1) The HT29 cell line (ATCC no. HTB-38) (human colon adenocarcinoma) was used in the present study. Cells were cultivated in RPMI 1640 culture medium with 10% fetal calf serum (FCS) (GibcoTM, Paisley, UK), supplemented with antibiotics (100 U/mL penicillin and 100 μg/mL streptomycin) (Sigma, St. Louis, MO, USA). The cell culture was performed in standard conditions, i.e., at 37 °C in a humidified atmosphere with 5% CO2. The CCD 841 CoTr cell line (ATCC no. CRL-1807) (human normal colon epithelium) was cultivated in RPMI 1640 +DMEM (1:1) medium (Sigma, St. Louis, MO, USA) with 10% FCS and the addition of antibiotics. The culture was carried out at 34 °C in a 5% CO2/95% air atmosphere.
(§2) After seeding (1 × 10^5 cells/mL) in a 96-well plate, the cells were incubated for 24 h. Thereafter, the tested compounds (100 μL) at a concentration range of 0–200 μg/mL in the culture medium were added to the wells (100 μL). The incubation lasted for 24 h. After that time, the culture medium was removed and a 0.4% Neutral Red solution in the culture medium was added to each well. The incubation was continued for another 3 h. After the incubation, the medium with the NR dye was discarded, and 4% paraformaldehyde in 1% CaCl2 was added for cell fixation (200 μL) and incubated for 3 min. Intracellular dye deposits were solubilized using 1% […] in a 50% ethanol solution (100 μL). The plates were then gently shaken (20 min.) at room temperature to dissolve and release the dye from the cells. Finally, spectrophotometric measurement was performed at 540 nm using an EL800 Universal Microplate Reader (BioTek Instruments, Winooski, VT, USA).

CCD 841 CoTr cells [2] = assay: Flow cytometry annexin V-FITC/PI, cell death types in CCD 841 CoTr cells; assay type: cell-based, human; details: 25 μg/mL, 24 h
Protocol: (§3) In a further flow cytometric study measuring normal and tumor cell death types, the cells were exposed to the cannabinoids at a concentration of 25 μg/mL for 24 h.
(§4) The annexin V-fluorescein isothiocyanate (FITC)/propidium iodide (PI) apoptosis kit (BD Biosciences, BD Pharmingen™, San Jose, CA, USA) was used for the quantitative analysis of cannabinoid-induced cell death.
(§5) For the analyses, both adhered (after detaching the cells with 10 mM EDTA in PBS w/o Ca^2+ and Mg^2+ ions solution) and floating cells were collected after 24 h of incubation with the tested cannabinoids. After collection, the cells were gently centrifuged (1000 rpm/5 min.). Next, the supernatant was discarded, and the cell pellet was suspended in warm PBS w/o Ca^2+ and Mg^2+ ions and incubated for 5 min. at room temperature. The centrifugation procedure was repeated again and, following the manufacturer’s procedure, the cells were suspended in 100 μL of 1X Annexin V Binding Buffer with 5 μL of FITC Annexin V […] and 5 μL of propidium iodide (PI) (5 mM). The preparation was gently vortexed and incubated at room temperature for 15 min. in the dark. After that time, the cells were subjected to cytometric analysis. Before dosing the cells into the cytometer, 400 μL of 1X Binding Buffer was added. The cells were analyzed using a flow cytometer (BD FACSCalibur) with CellQuest Pro Version 6.0 software within 1 h after the staining was completed.

[3] = as above; assay type: cell-based, human; details: human, CCD 841 CoTr cells (normal cells), read-out: Percentage of viable cells
Protocol: as §3, §4, §5

HT29 cells [4] = assay: Neutral Red (NR) uptake assay, viability of HT29 cells; assay type: cell-based; details: Homo sapiens, HT-29; HT29 colon tumor cells, 24 h incubation
Protocol: as §1, §2

HT29 cells [5] = assay: Flow cytometry annexin V-FITC/PI, cell death types in HT29 cells; assay type: cell-based, human; details: HT29, 25 μg/mL, 24 h; for viability at 25 µg/mL: Homo sapiens, HT-29, read-out: Percentage of viable cells
Protocol: as §3, §4, §5

CCD 841 CoTr cells [6] = assay: MTT assay, metabolic activity of CCD 841 CoTr cells; assay type: cell-based, human; details: for IC50: Homo sapiens, CCD-841, 24 h, read-out: IC50 Values (MTT method)
Protocol: as §1
After seeding (1 × 10^5 cells/mL) in a 96-well plate, the cells were incubated for 24 h. Thereafter, the tested compounds (100 μL) at a concentration range of 0–200 μg/mL in the culture medium were added to the wells (100 μL). The incubation lasted for 24 h. After that time, an MTT solution (5 mg/mL, 25 μL/well) was added to each well. The incubation was continued for another 3 h. After the incubation, 10% sodium dodecyl sulfate (SDS) in 0.01 M HCl (100 μL) was added in order to dissolve the purple formazan crystals. Solubilization was carried out overnight. Finally, spectrophotometric measurement was performed at 570 nm using an EL800 Universal Microplate Reader (BioTek Instruments, Winooski, VT, USA).

HT29 cells [7] = assay: Nitric oxide (NOx) release in HT29 culture, Griess method; assay type: cell-based, human; details: HT29 cancer cells, 0–200 μg/mL, 24 h
Protocol: In this spectrophotometric method, the stable end products (nitrate and nitrite) were analyzed in the normal and tumor culture supernatants after 24 h of incubation of the cells with the cannabinoids in the concentration range of 0–200 μg/mL. The Griess reaction was applied. This method involves a 2-step reaction, whose product is a red-pink azo dye. The amount of this dye is directly proportional to the amount of NO. The cells were cultured for 24 h in 24-well plates (1 mL/well, density 1 × 10^5 cells/mL); next, after withdrawing the culture fluid, the tested cannabinoids were added to the wells at a volume of 1 mL/well and the incubation was carried out for another 24 h. After the incubation, the culture media were collected and frozen at −80 °C for no longer than 1 month. For calibration and quantitative analysis, the standard curve was prepared using 0.5–25 μM sodium nitrite (NaNO2). Thawed and centrifuged (5000 rpm/5 min.) supernatant samples and the standard were poured into a 96-well flat-bottomed plate at 100 µL/well. Each sample was analyzed in triplicate. […] Finally, the absorbance of the samples was spectrophotometrically read at 570 nm using an EL800 Universal Microplate Reader (BioTek Instruments, Winooski, VT, USA).

CCD 841 CoTr cells [8] = assay: Nitric oxide (NOx) release in CCD 841 CoTr culture, Griess method; assay type: cell-based, human; details: CCD 841 CoTr normal cells, 0–200 μg/mL, 24 h
Protocol: In this spectrophotometric method, the stable end products (nitrate and nitrite) were analyzed in the normal and tumor culture supernatants after 24 h of incubation of the cells with the cannabinoids in the concentration range of 0–200 μg/mL. The Griess reaction was applied. This method involves a 2-step reaction, whose product is a red-pink azo dye. The amount of this dye is directly proportional to the amount of NO. The cells were cultured for 24 h in 24-well plates (1 mL/well, density 1 × 10^5 cells/mL); next, after withdrawing the culture fluid, the tested cannabinoids were added to the wells at a volume of 1 mL/well and the incubation was carried out for another 24 h. After the incubation, the culture media were collected and frozen at −80 °C for no longer than 1 month. For calibration and quantitative analysis, the standard curve was prepared using 0.5–25 μM sodium nitrite (NaNO2). Thawed and centrifuged (5000 rpm/5 min.) supernatant samples and the standard were poured into a 96-well flat-bottomed plate at 100 µL/well. Each sample was analyzed in triplicate. Subsequently, 100 µL/well of Griess reagent (1% sulfanilamide/0.1% N-(1-naphthyl)ethylenediamine dihydrochloride) in 3% H3PO4 was added to all wells and incubated at room temperature for 10 min. Finally, the absorbance of the samples was spectrophotometrically read at 570 nm using an EL800 Universal Microplate Reader (BioTek Instruments, Winooski, VT, USA).

[9] = CCD 841 CoTr colon normal cells, 24 h incubation

Compound	IC50 (CCD 841 CoTr cells [1])	Percentage of cells in early apoptosis (CCD 841 CoTr cells [2])	Percentage of cells in late apoptosis (CCD 841 CoTr cells [2])	Percentage of cells in necrosis (CCD 841 CoTr cells [2])	Reduction in the number of viable normal cells compared to the control (CCD 841 CoTr cells [2])	viability at 24 h, 25 μg/mL [3]	IC50 (HT29 cells [4])	Cells in late apoptosis, more than in the control (HT29 cells [5])	Cells in necrosis, more than in the control (HT29 cells [5])	Percentage of cells in early apoptosis (HT29 cells [5])	Percentage of cells in late apoptosis (HT29 cells [5])	Percentage of cells in necrosis (HT29 cells [5])	Reduction in the number of viable cells compared to the control (HT29 cells [5])	viability at 25 µg/mL (HT29 cells [5])	IC50 (CCD 841 CoTr cells [6]; [9])	Effect on release of nitric oxide NOx (in words) (HT29 cells [7])	Effect on release of nitric oxide NOx (in words) (CCD 841 CoTr cells [8])	other results
CCCCCc1cc(O)cc(O)c1C/C=C(\C)CCC=C(C)C [abn-CBG, abnormal cannabigerol]	14.1 µg/mL (≈ 44.6 µM)	8.57 ± 1.67 %	18.36 ± 3.62 %	47.55 ± 4.12 %	66.79%	25.5 ± 1.2%	13.7 µg/mL (≈ 43.2 µM)	68.83%	19.03%	3.65 ± 0.65 %	71.86 ± 2.36 %	19.75 ± 2.50 %	90.42%	4.74 ± 0.39%	15.3 µg/mL (≈ 48.5 µM)			Cells in necrosis, more than in the control (CCD 841 CoTr cells [2]): 47.27%; Early and late apoptosis together, dying cells compared to the control (CCD 841 CoTr cells [2]): 19.52%; Reduction of the metabolism of normal cells (MTT) (CCD 841 CoTr cells [6]; CCD 841 CoTr, 25 μg/mL, 24 h): over 81%
CCCCCc1cc(O)c2c(c1)OC(C)(CCC=C(C)C)C=C2 (centres unmarked) [CBC, cannabichromene]	151 µg/mL (≈ 480 µM)	2.51 ± 0.54%	5.58 ± 1.02%	0.54 ± 0.39%	did not significantly affect	91.4 ± 1.19%	60.6 µg/mL (≈ 193 µM)			1.36 ± 0.18%	6.84 ± 0.71 %	1.18 ± 0.39%	7.13%	88 ± 2.34%	75.2 µg/mL (≈ 239 µM)	reduction in NOx levels with increasing cannabinoid concentration	reduction in NOx levels with increasing cannabinoid concentration	IC50 Values (MTT method) (CCD 841 CoTr cells [6]; [9]): 75.29 µg/mL (≈ 239 µM); Stimulation of cell metabolism compared to the control (MTT) (CCD 841 CoTr cells [6]; CCD 841 CoTr, lowest concentration, 24 h): over 4%
CCCCCc1cc2c3c(c1)OC(C)(C)C1CCC(C)(CC31)O2 (centres unmarked) [CBT, cannabicitran]	44.5 µg/mL (≈ 141 µM)	2.90 ± 0.74%	8.72 ± 1.91 %	1.08 ± 0.56 %	5.02%	87.3 ± 2.11%	53.9 µg/mL (≈ 171 µM)	49.2%	3.24%	0.91 ± 0.16%	52.23 ± 1.26 %	3.96 ± 0.40 %	52.25%	42.9 ± 0.96%	55.5 µg/mL (≈ 177 µM)	statistically insignificant stimulating effect	reduced the level of this molecule	Cells in late apoptosis, more than in the control (CCD 841 CoTr cells [2]): 3.12%
